# Tests used:
# [1] = target: T1, BacAef (Enterococcus faecalis, UniProt A0ACD6TE02); type: binding; conditions: DSC, BacAef 33 μM + peptides 66 μM, 60 °C/h, representative of triplicate
# Protocol: Thermal stability of BacA protein in different mixtures of peptides was performed by DSC on a MicroCal model VP-DSC (Malvern Panalytical, Malvern, UK). BacA (33 μM) was mixed with different mixtures of peptides at twice the BacA concentration (i.e. 66 μM). Each measurement was preceded by a baseline scan with the standard buffer. Scans were performed at 1 K/min (60 °C/h) temperature ramp between 30 °C and 100 °C. The heat capacity of the buffer was subtracted from that of the protein sample before analysis. The thermodynamic parameters were determined by fitting the data to the following equation: ΔCp(T)=Kd(T)ΔHcalΔHvH/[1+Kd(T)]^2RT^2 where Kd is the equilibrium constant for a two-state process, ΔHvH the enthalpy calculated based on a two-state process and ΔHcal the measured enthalpy.
# [2] = target: BacAef K209A (Enterococcus faecalis, UniProt A0ACD6TE02, K221A); assay: ITC, BacAef K209A; type: binding; conditions: 20 °C
# Protocol: (§1) The experiments were carried out at 20 °C.
# [3] = target: T2, BacAec (Escherichia coli, UniProt P60932); conditions: DDM micelles
# Protocol: The C55-PP phosphatase assays were performed in a 10-μl reaction mixture containing 20 mM Tris-HCl, pH 7.4, 400 μM CaCl2, 150 mM NaCl, 0.1% (w/v) DDM and 50 μM radiolabeled [^14C]C55-PP (900 Bq). The BacA concentration was adjusted in order to achieve less than 30% substrate hydrolysis. The mixture was incubated for 10 min at 37 °C, and the reaction was stopped by freezing in liquid nitrogen. Substrates and products were separated by thin-layer chromatography on precoated silica gel 60 plates (Merck) using 1-propanol/ammonium hydroxide/water (6:3:1, v/v/v) as the mobile phase. Radioactive spots were located and quantified using a radioactivity scanner (model Multi-Tracermaster LB285, Berthold-France). When the phosphatase activity was tested at different pH values, the following buffers were used at 20 mM: sodium acetate (pH 4–7) or Tris-HCl (pH 7–8). In the EDTA assay, the protein was pre-treated with 200 μM EDTA. For pH and EDTA assays, CaCl2 was omitted from the reaction buffer.
# [4] = target: T2, BacAec; conditions: titration of EntC into BacAec
# Protocol: ITC experiments were performed with an ITC200 isothermal titration calorimeter from MicroCal (Malvern Panalytical, Malvern, UK). The experiments were carried out at 20 °C. The protein concentration in the microcalorimeter cell (0.2 ml) was 33 μM. Nineteen 2-μl injections of peptides at 400 μM were performed at intervals of 240 s while stirring at 500 rpm. To limit buffer mismatching effect between the cell and the syringe, and the heat-of-dilution effect for having glycerol in the protein solution, the latter were extensively dialyzed, prior to the ITC measurement, in a buffer containing 20 mM Tris-HCl pH 7.4, 200 mM NaCl, 0.1% DDM, to remove glycerol. Then, the dialysis buffer was used to dilute the EntC peptides to further limit buffer mismatching. The experimental data were fitted to theoretical titration curves with the software supplied by MicroCal (ORIGIN). This software uses the relationship between the heat generated by each injection and ΔH (enthalpy change in kcal/mol), Ka (the association binding constant in M^−1), n (the number of binding sites), total protein concentration and free and total ligand concentrations.
# [5] = target: T1, BacAef; assay: DSS crosslinking; type: binding; conditions: BacAef and peptide 17 μM each, DSS 100- or 1000-fold excess, 30 min, 4 °C
# Protocol: Crosslinking experiments were performed using the amine-reactive, membrane-permeable, and non-cleavable crosslinker disuccinimidyl suberate (DSS) purchased from Sigma. EntC peptides and BacA protein were mixed at equimolar concentrations (17 μM) in buffer D in the presence of an excess of DSS crosslinker (1000-fold or 100-fold) in a final reaction volume of 20 μl. The reaction was incubated for 30 min at 4°C, and any unreacted DSS was quenched with 50 mM Tris-HCl. After separation on a 12% acrylamide gel, proteins were electrotransferred onto polyvinylidene difluoride (PVDF) membrane, and BacA was detected using peroxidase-coupled anti-His tag antibody (Penta-His HRP conjugate from Qiagen, RRID: AB_3699318) by chemiluminescence detection (Western Lightning Plus-ECL, PerkinElmer) using the ChemiDoc MP system (Bio-Rad).
# [6] = system: E. faecalis EfΔbacA cells expressing BacAef D110A; assay: survival test; type: cell-based, Enterococcus faecalis; conditions: 0.5 μM EntC, 30 min, 37 °C, three experiments
# [7] = target: BacAef R172A (Enterococcus faecalis, UniProt A0ACD6TE02, R184A); assay: ITC, BacAef R172A; type: binding; conditions: 20 °C
# Protocol: as §1
# T2 sequence (P60932 whole entry): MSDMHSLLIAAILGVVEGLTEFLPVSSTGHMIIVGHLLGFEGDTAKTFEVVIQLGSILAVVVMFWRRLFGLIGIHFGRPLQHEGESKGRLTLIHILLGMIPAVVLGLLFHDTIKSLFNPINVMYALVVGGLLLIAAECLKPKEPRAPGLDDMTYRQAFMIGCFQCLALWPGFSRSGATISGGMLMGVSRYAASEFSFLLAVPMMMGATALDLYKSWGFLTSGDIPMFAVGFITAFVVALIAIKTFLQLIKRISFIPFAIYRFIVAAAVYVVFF
substance,measurement,setting,value
Enterocin C [EntC],melting temperature (Tm) of BacAef,"[1]; 30-100 °C, Tris-HCl pH 7.5, 0.1% DDM, BacAef alone 66.3 °C",83.8 °C
same,enthalpy of denaturation (ΔH) of BacAef,[1]; BacAef alone 26.7 kcal/mol,83.7 kcal/mol
same,n,[2]; 400 μM into [BacAef K209A] 33 μM,0.46 ± 0.02
same,Kd,"[2]; 400 μM into [BacAef K209A] 33 μM, pH 7.4, 0.1% DDM, at least triplicate",1840 ± 335 nM
same,-TΔS,[2]; into [BacAef K209A],0.1 kcal/mol
same,ΔH,[2]; into [BacAef K209A],-8.3 kcal/mol
same,inhibition of BacAec C55-PP phosphatase activity,[3],not inhibited
same,binding to BacAec (ITC),[4],no binding
same,"crosslinked complex band with BacAef (SDS-PAGE, western blot)",[5],two faint bands appeared above the BacA monomer
same,% of survival,[6],2.8 ± 1.0%
same,n,[7]; 400 μM into [BacAef R172A] 33 μM,0.30 ± 0.03
same,Kd,"[7]; 400 μM into [BacAef R172A] 33 μM, pH 7.4, 0.1% DDM, at least triplicate",1610 ± 650 nM
same,-TΔS,[7]; into [BacAef R172A],3.6 kcal/mol
same,ΔG,[7]; into [BacAef R172A],-7.8 kcal/mol
same,ΔH,[7]; into [BacAef R172A],-11.4 kcal/mol
